# According to PMC10604720, “Unraveling the Mechanism of Epichaperome Modulation by Zelavespib: Biochemical Insights on Target Occupancy and Extended Residence Time at the Site of Action” (Biomedicines, 2023):
# Test system: epichaperomes
# Assay: In vivo target-drug unbinding kinetics taken from Phase 2 tumor pharmacokinetics
# Design: species or system mouse
# Description: Figure 1 Biodistribution of zelavespib in MDA-MB-468 tumor-bearing mice. (a) Biodistribution of [^124I]-Zelavespib in MDA-MB-468 tumors, organs, tissues, and plasma as per ref. [32]. Data are presented as means ± s.d., five mice per time point. Curves for blood, lung, heart, muscle, bone, and brain were fitted using a one-phase decay equation, and kinetics of zelavespib clearance were determined. Tumor curve was fitted to a two-phase exponential decay. k, kfast, and kslow are the rate constants. Half-life (T1/2) is computed as ln(2)/k. […] (b) Illustrative schematic showing the distinct binding kinetics of zelavespib to epichaperomes (slow off-rate) and to chaperone assemblies (fast off-rate). The tumor pharmacokinetics profile recorded in the Phase 2 interval may represent a direct reflection of the in vivo kinetics of target–drug unbinding. koff, kinetic rate constant for dissociation of an epichaperome-zelavespib assembly. Rt, retention time. […]
compound,measurement,setting,value
CC(C)NCCCn1c(Sc2cc3c(cc2I)OCO3)nc2c(N)ncnc21 [zelavespib],Rt = 1/koff (retention time),epichaperome-zelavespib assembly,67.56 h
same,"koff, dissociation of epichaperome-zelavespib assembly",taken as k of tumor Phase 2,4.11e-06 s⁻¹
